Read-outs that look alike come from different tables or passages of the source.
Legend:
Human Calpain 9/NS1 = biological target: T1, Human Calpain 9/NS1 (Homo sapiens, UniProt O14815); assay: Calpain inhibition continuous fluorescence (FRET) assay, Human Calpain 9/NS1; type: biochemical
T1 sequence (O14815 1-690): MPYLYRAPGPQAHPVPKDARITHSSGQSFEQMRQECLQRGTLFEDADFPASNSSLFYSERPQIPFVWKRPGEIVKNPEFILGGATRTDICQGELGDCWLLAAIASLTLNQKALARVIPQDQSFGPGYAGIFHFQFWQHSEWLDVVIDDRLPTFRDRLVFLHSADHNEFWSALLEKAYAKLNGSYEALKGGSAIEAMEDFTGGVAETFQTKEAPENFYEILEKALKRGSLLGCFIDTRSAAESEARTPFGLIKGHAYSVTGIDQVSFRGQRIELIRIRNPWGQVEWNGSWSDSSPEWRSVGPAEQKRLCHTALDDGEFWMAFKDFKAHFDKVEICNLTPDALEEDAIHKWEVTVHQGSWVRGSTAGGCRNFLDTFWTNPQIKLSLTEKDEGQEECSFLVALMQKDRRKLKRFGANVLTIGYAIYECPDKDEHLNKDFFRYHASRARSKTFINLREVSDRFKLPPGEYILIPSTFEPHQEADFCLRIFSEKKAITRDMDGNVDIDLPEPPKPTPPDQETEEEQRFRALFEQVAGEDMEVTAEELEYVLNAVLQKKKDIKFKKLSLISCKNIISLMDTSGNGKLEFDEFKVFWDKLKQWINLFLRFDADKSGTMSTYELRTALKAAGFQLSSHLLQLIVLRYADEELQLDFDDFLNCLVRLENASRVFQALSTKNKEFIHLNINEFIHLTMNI
T1 sequence (P04632 1-268 partner): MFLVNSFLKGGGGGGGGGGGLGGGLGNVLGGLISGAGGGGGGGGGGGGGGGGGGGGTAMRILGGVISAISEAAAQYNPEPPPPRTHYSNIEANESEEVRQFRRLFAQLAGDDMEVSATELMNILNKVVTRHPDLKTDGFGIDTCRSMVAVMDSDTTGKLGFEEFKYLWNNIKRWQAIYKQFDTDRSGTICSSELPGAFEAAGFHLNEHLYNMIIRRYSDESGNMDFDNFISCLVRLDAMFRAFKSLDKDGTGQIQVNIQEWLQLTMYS
Method in brief: (§1)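 Inhibitors were preincubated with calpain in 50 mM Tris pH 7.5, 100 mM NaCl, 1 mM DTT at 25C. Reactions were started with 5-FAM/QXL 520 FRET peptide substrate plus CaCl2 and read at 490/520 nm for 10 min. IC50s came from 4-parameter fits of slope rates (1-5 min).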

Human Calpain 2/NS1 = biological target: T2, Human Calpain 2/NS1 (Homo sapiens, UniProt P17655); assay: Calpain inhibition continuous fluorescence (FRET) assay, Human Calpain 2/NS1; type: biochemical
T2 sequence (P17655 1-700): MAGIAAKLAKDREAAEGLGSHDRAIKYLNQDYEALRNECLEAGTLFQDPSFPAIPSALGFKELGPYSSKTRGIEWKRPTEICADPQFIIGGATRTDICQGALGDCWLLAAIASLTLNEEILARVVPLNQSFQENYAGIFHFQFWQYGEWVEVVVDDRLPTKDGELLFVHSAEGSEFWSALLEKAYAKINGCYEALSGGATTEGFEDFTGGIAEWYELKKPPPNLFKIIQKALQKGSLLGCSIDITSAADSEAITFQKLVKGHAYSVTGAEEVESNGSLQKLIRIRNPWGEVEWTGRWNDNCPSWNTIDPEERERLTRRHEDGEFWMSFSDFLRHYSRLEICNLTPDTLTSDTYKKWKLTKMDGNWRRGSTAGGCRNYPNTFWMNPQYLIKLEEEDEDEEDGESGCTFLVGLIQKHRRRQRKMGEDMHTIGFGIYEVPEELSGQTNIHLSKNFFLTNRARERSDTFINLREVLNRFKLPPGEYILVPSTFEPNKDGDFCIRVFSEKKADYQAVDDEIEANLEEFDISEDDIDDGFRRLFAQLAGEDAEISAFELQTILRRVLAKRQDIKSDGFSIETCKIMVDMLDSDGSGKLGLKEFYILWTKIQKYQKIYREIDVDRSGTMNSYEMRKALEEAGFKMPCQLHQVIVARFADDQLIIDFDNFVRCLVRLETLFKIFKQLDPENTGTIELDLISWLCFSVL
T2 sequence (P04632 1-268 partner): T1 sequence (P04632 1-268 partner)
Method in brief: as §1

[1] = system: Calpain activity in SH-SY5Y cells (SBDP-150); assay: SH-SY5Y Spectrin western blot assay (SBDP-150 breakdown product, A23187-induced); type: cell-based; settings: Homo sapiens, read-out: SH-SY5Y Spectrin IC50
Human Calpain 1/NS1 = biological target: T3, Human Calpain 1/NS1 (Homo sapiens, UniProt P07384); assay: Calpain inhibition continuous fluorescence (FRET) assay, Human Calpain 1/NS1; type: biochemical
T3 sequence (P07384 1-714): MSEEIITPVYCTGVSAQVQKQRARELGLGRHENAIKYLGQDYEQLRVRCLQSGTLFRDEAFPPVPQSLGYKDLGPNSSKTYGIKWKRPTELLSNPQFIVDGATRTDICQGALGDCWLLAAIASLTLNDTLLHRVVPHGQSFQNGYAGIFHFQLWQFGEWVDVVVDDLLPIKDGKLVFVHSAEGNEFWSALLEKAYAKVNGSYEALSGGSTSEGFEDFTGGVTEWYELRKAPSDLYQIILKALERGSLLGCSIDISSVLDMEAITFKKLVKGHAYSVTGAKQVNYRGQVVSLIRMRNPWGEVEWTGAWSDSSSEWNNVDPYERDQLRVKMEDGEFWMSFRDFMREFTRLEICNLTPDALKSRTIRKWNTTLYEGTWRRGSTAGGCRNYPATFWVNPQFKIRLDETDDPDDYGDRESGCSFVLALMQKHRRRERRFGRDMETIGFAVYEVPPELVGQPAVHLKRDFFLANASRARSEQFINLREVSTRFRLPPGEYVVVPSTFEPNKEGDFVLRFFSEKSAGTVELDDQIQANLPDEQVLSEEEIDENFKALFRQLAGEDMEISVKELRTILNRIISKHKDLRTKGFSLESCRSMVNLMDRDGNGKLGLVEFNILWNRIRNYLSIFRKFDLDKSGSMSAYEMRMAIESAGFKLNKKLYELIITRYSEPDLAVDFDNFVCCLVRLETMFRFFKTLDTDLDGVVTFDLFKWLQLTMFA
T3 sequence (P04632 1-268 partner): T1 sequence (P04632 1-268 partner)
Method in brief: as §1

[2] = system: Calpain activity in SH-SY5Y cells; assay: SH-SY5Y + AMC fluorescence assay (Suc-LLVY-AMC substrate); type: cell-based; settings: read-out: SH-SY5Y + AMC IC50
[3] = read-out: Human Calpain 9/NS1 IC50
[4] = read-out: Human Calpain 2/NS1 IC50
[5] = SH-SY5Y cells, A23187-induced SBDP-150, western blot
[6] = read-out: Human Calpain 1/NS1 IC50
[7] = Column C, read-out: Human Calpain 9/NS1 IC50
[8] = Column B, read-out: Human Calpain 2/NS1 IC50
[9] = Column D, SH-SY5Y cells, A23187-induced SBDP-150
[10] = Column A, read-out: Human Calpain 1/NS1 IC50

Row | SMILES | IC50 (Human Calpain 9/NS1; [3]) [µM] | IC50 (Human Calpain 2/NS1; [4]) [µM] | IC50 [1, 5] [µM] | IC50 (Human Calpain 1/NS1; [6]) [µM] | IC50 [2] [µM] | IC50 (Human Calpain 9/NS1; [7]) [µM] | IC50 (Human Calpain 2/NS1; [8]) [µM] | IC50 [1, 9] [µM] | IC50 (Human Calpain 1/NS1; [10]) [µM] | IC50 ([2]; Column E) [µM] | IC50 (Human Calpain 9/NS1) [µM] | IC50 (Human Calpain 2/NS1) [µM] | IC50 ([1]; SH-SY5Y) [µM] | IC50 (Human Calpain 1/NS1) [µM]
1 | Cc1nc(-c2ccccc2)c(C(=O)NC(Cc2ccccc2)C(=O)C(=O)NC2CC2)o1 (stereo not shown) [Compound 459, N-(4-(cyclopropylamino)-3,4-dioxo-1-phenylbutan-2-yl)-2-methyl-4-phenyloxazole-5-carboxamide] | < 3 | < 3 | 10 to 25 | < 3 | < 10 |  |  |  |  |  |  |  |  | 
2 | CC(C)CC(NC(=O)c1nsnc1-c1ccccc1)C(=O)C(N)=O (stereo not shown) [Compound 465, N-(1-amino-5-methyl-1,2-dioxohexan-3-yl)-4-phenyl-1,2,5-thiadiazole-3-carboxamide] | < 3 | < 3 | < 10 | < 3 | > 25 |  |  |  |  |  |  |  |  | 
3 | Cc1cc(C(=O)N[C@@H](Cc2ccccc2)C(=O)C(N)=O)n(-c2cnccn2)n1 [Compound 63, (S)—N-(4-amino-3,4-dioxo-1-phenylbutan-2-yl)-3-methyl-1-(pyrazin-2-yl)-1H-pyrazole-5-carboxamide] |  |  |  |  |  | < 3 | < 3 | < 10 | < 3 | < 10 |  |  |  | 
4 | COc1cccc(-c2nn(C)cc2C(=O)NC(Cc2ccccc2)C(=O)C(N)=O)c1F (stereo not shown) [Compound 509, N-(4-amino-3,4-dioxo-1-phenylbutan-2-yl)-3-(2-fluoro-3-methoxyphenyl)-1-methyl-1H-pyrazole-4-carboxamide] | < 3 | < 3 | 10 to 25 | < 3 | 10 to 25 |  |  |  |  |  |  |  |  | 
5 | Cc1cc(C(=O)N[C@@H](Cc2ccccc2)C(=O)C(N)=O)n(-c2cccc(CNC(=O)Oc3ccccc3)c2)n1 [Compound 344, Phenyl (S)-(3-(5-((4-amino-3,4-dioxo-1-phenylbutan-2-yl)carbamoyl)-3-methyl-1H-pyrazol-1-yl)benzyl)carbamate] |  |  |  |  | 10 to 25 |  |  |  |  |  | < 3 | < 3 | > 25 | < 3
6 | COc1ccc(F)c(-c2nn(C)cc2C(=O)NC(Cc2ccccc2)C(=O)C(N)=O)c1 (stereo not shown) [Compound 507, N-(4-amino-3,4-dioxo-1-phenylbutan-2-yl)-3-(2-fluoro-5-methoxyphenyl)-1-methyl-1H-pyrazole-4-carboxamide] | < 3 | < 3 | 10 to 25 | < 3 | < 10 |  |  |  |  |  |  |  |  | 
7 | COc1ccc2nc(-n3nc(C(=O)N[C@@H](Cc4ccccc4)C(=O)C(N)=O)cc3C)sc2c1 [Compound 296, (S)—N-(4-amino-3,4-dioxo-1-phenylbutan-2-yl)-1-(6-methoxybenzo[d]thiazol-2-yl)-5-methyl-1H-pyrazole-3-carboxamide] |  |  |  |  |  | < 3 | < 3 | < 10 | < 3 | > 25 |  |  |  | 
8 | Cc1cc(C(=O)N[C@@H](Cc2ccccc2)C(=O)C(N)=O)n(-c2ccccc2)n1 [Compound 276, (S)—N-(4-amino-3,4-dioxo-1-phenylbutan-2-yl)-3-methyl-1-phenyl-1H-pyrazole-5-carboxamide] |  |  |  |  |  | < 3 | < 3 | < 10 | < 3 | < 10 |  |  |  | 
9 | Cc1csc(-c2nn(C)cc2C(=O)NC(Cc2ccccc2)C(=O)C(N)=O)c1 (stereo not shown) [Compound 504, N-(4-amino-3,4-dioxo-1-phenylbutan-2-yl)-1-methyl-3-(4-methylthiophen-2-yl)-1H-pyrazole-4-carboxamide] | < 3 | < 3 | > 25 | < 3 | > 25 |  |  |  |  |  |  |  |  | 
10 | Cc1cc(C(=O)N[C@@H](Cc2ccccc2)C(=O)C(N)=O)n(-c2ccncn2)n1 [Compound 245, (S)—N-(4-amino-3,4-dioxo-1-phenylbutan-2-yl)-3-methyl-1-(pyrimidin-4-yl)-1H-pyrazole-5-carboxamide] |  |  |  |  |  | < 3 | < 3 | 10 to 25 | < 3 | < 10 |  |  |  | 
11 | Cc1cc(C(=O)N[C@@H](Cc2ccccc2)C(=O)C(N)=O)n(-c2ccc(CNS(=O)(=O)c3ccccc3)cc2)n1 [Compound 156, (S)—N-(4-amino-3,4-dioxo-1-phenylbutan-2-yl)-3-methyl-1-(4-(phenylsulfonamidomethyl)phenyl)-1H-pyrazole-5-carboxamide] |  |  |  |  |  | < 3 | < 3 | < 10 | < 3 | > 25 |  |  |  | 
12 | N#Cc1ccc(-c2nn(C3CC3)cc2C(=O)NC(Cc2ccccc2)C(=O)C(N)=O)cn1 (stereo not shown) [Compound 413, N-(4-amino-3,4-dioxo-1-phenylbutan-2-yl)-3-(6-cyanopyridin-3-yl)-1-cyclopropyl-1H-pyrazole-4-carboxamide] | < 3 | < 3 | > 25 | < 3 | > 25 |  |  |  |  |  |  |  |  | 
13 | NC(=O)C(=O)[C@H](Cc1ccccc1)NC(=O)c1c(-c2ccccc2)oc2ccccc12 [Compound 249, (S)—N-(4-amino-3,4-dioxo-1-phenylbutan-2-yl)-2-phenylbenzofuran-3-carboxamide] |  |  |  |  |  | < 3 | < 3 | 10 to 25 | < 3 | > 25 |  |  |  | 
14 | Cc1cc(C(=O)N[C@@H](Cc2ccccc2)C(=O)C(N)=O)n(-c2cccc(CNS(=O)(=O)c3ccccc3)c2)n1 [Compound 145, (S)—N-(4-amino-3,4-dioxo-1-phenylbutan-2-yl)-3-methyl-1-(3-(phenylsulfonamidomethyl)phenyl)-1H-pyrazole-5-carboxamide] |  |  |  |  |  | < 3 | < 3 | < 10 | < 3 | < 10 |  |  |  | 
